Measurements reported in PubChem BioAssay AID296 (DTP/NCI, 2004).
Where “and” joins values, the source holds several entries; their conditions need not be identical. Equal values may be shown once. Inconclusive results are not listed.

Test system: MX-1 breast xenograft, nude mice, tumor weight T/C
Experiment: NCI In Vivo Anticancer Drug Screen. Data for tumor model Human Mammary Carcinoma MX-1 Xenograft (intrarenal inoculation) in NU/NU Swiss (nude) mice
Conditions: endpoint: mean tumor weight change, higher = larger tumour
How it was run: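 Tumor-bearing mice were treated with test compound alongside a vehicle-treated control group. Survival or tumor size was measured, and activity is expressed as the treated-group value divided by the control-group value.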

[1] = dose: 25.0 mg/kg/injection, schedule: Q01DX010 (sc), vehicle: saline
[2] = dose: 6.25 mg/kg/injection, schedule: Q01DX010 (sc), vehicle: saline
[3] = dose: 50.0 mg/kg/injection, schedule: Q01DX010 (sc), vehicle: Klucel (hydroxypropylcellulose) (HPC)
[4] = dose: 100.0 mg/kg/injection, schedule: Q01DX010 (sc), vehicle: Klucel (hydroxypropylcellulose) (HPC)
[5] = dose: 300.0 mg/kg/injection, schedule: Q04DX003 (sc), vehicle: Klucel (hydroxypropylcellulose) (HPC)
[6] = dose: 600.0 mg/kg/injection, schedule: Q04DX003 (sc), vehicle: Klucel (hydroxypropylcellulose) (HPC)
[7] = dose: 1200.0 mg/kg/injection, schedule: Q04DX003 (sc), vehicle: Klucel (hydroxypropylcellulose) (HPC)

In the case of `COc1cccc2c1C(=O)c1c(O)c3c(c(O)c1C2=O)CC(O)(C(=O)CO)CC3OC1CC(N)C(O)C(C)O1` (centres undefined), the T/C (dose: 12.0 mg/kg/injection, schedule: Q01DX010 (sc), vehicle: saline) is reported as 90 % of control, the T/C (dose: 24.0 mg/kg/injection, schedule: Q01DX010 (sc), vehicle: saline) is reported as 80 % of control and the T/C [1] is reported as 78 % of control. For the same compound, the T/C (dose: 37.5 mg/kg/injection, schedule: Q01DX010 (sc), vehicle: water) was 281 % of control, the T/C (dose: 48.0 mg/kg/injection, schedule: Q01DX010 (sc), vehicle: saline) was 9 % of control and the T/C (dose: 50.0 mg/kg/injection, schedule: Q01DX010 (sc), vehicle: saline) was 22 % of control. The T/C (dose: 75.0 mg/kg/injection, schedule: Q01DX010 (sc), vehicle: water) was 229 % of control, the T/C (dose: 96.0 mg/kg/injection, schedule: Q01DX010 (sc), vehicle: saline) was 4 % of control and the T/C (dose: 150.0 mg/kg/injection, schedule: Q01DX010 (sc), vehicle: water) was 233 % of control. For the same compound, the T/C (dose: 300.0 mg/kg/injection, schedule: Q01DX010 (sc), vehicle: water) was 81 % of control.

With `O=C1C=C(C2OC(CO)C(O)C2O)C(=O)N1` (centres undefined) the T/C [2] was 79 % of control and the T/C (dose: 12.5 mg/kg/injection, schedule: Q01DX010 (sc), vehicle: saline) was 123 % of control.

For `O=C1C(=O)c2cccnc2-c2ncccc21`, the T/C (dose: 20.0 mg/kg/injection, schedule: Q04DX003 (sc), vehicle: Klucel (hydroxypropylcellulose) (HPC)) was 60 % of control.

`OCC1OC(n2cnc3c(=S)nc[nH]c32)C(O)C1O` (centres undefined) was tested, and the T/C [1] was 38 % of control and 60 % of control, the T/C (dose: 50.0 mg/kg/injection, schedule: Q01DX010 (sc), vehicle: suspension in saline) was 84 % of control and the T/C (dose: 100.0 mg/kg/injection, schedule: Q01DX010 (sc), vehicle: saline) was 12 % of control and 17 % of control. The T/C (dose: 100.0 mg/kg/injection, schedule: Q01DX010 (sc), vehicle: suspension in saline) was -81 % of control, the T/C (dose: 200.0 mg/kg/injection, schedule: Q01DX010 (sc), vehicle: saline) was -22 % of control and the T/C (dose: 300.0 mg/kg/injection, schedule: Q04DX003 (sc), vehicle: saline) was 98 % of control. The T/C (dose: 600.0 mg/kg/injection, schedule: Q04DX003 (sc), vehicle: saline) was 69 % of control, the T/C (dose: 1200.0 mg/kg/injection, schedule: Q04DX003 (sc), vehicle: saline) was 39 % of control and the T/C (dose: 2400.0 mg/kg/injection, schedule: Q04DX003 (sc), vehicle: saline) was 13 % of control.

`CCCCCCCCCCCCCCCC(=O)Nc1ccn(C2OC(CO)C(O)C2O)c(=O)n1` (centres undefined) was tested, and the T/C (dose: 1200.0 mg/kg/injection, schedule: Q04DX003 (sc), vehicle: water) was -65 % of control and -50 % of control.

With `CN(C)P(=O)(Oc1ccccc1)N(C)C` the T/C (dose: 150.0 mg/kg/injection, schedule: Q04DX003 (sc), vehicle: saline with Tween-80) was 97 % of control, the T/C (dose: 300.0 mg/kg/injection, schedule: Q04DX003 (sc), vehicle: saline with Tween-80) was 107 % of control and the T/C (dose: 600.0 mg/kg/injection, schedule: Q04DX003 (sc), vehicle: saline with Tween-80) was 113 % of control. For the same compound, the T/C (dose: 1200.0 mg/kg/injection, schedule: Q04DX003 (sc), vehicle: saline with Tween-80) was 71 % of control.

For `Cc1cc(NS(=O)(=O)c2ccc(N=Nc3cc(N=Nc4ccc(S(=O)(=O)Nc5cc(C)nc(C)n5)cc4)c4c(NC(=O)C(Cl)Cl)cccc4c3OC(=O)C(Cl)Cl)cc2)nc(C)n1` (tested in a mixture with another compound), the T/C (dose: 2400.0 mg/kg/injection, schedule: Q04DX003 (sc), vehicle: suspension in saline) was 112 % of control.

For `C[C@@]1(CO)[C@H](O)CC[C@@]2(C)[C@H]1CC[C@H]1C[C@@H]3C[C@@]12CC[C@@]3(O)COC(=O)CN`, the T/C (dose: 125.0 micrograms/kg/injection, schedule: Q04DX003 (sc), vehicle: saline + alcohol) was 102 % of control, the T/C (dose: 250.0 micrograms/kg/injection, schedule: Q04DX003 (sc), vehicle: saline + alcohol) was 34 % of control and the T/C (dose: 500.0 micrograms/kg/injection, schedule: Q04DX003 (sc), vehicle: saline + alcohol) was 55 % of control. The T/C (dose: 1000.0 micrograms/kg/injection, schedule: Q04DX003 (sc), vehicle: saline + alcohol) was 70 % of control.

`CC(C)=CC(=O)OC1C2C(C)=CC(=O)C(O)C2(C)C2C3(O)OCC24C(CC(=O)OC14)C(C)C3O` (centres undefined) was tested, and the T/C (dose: 1.25 mg/kg/injection, schedule: Q04DX003 (sc), vehicle: distilled water + Tween-80) was 41 % of control, the T/C (dose: 2.5 mg/kg/injection, schedule: Q04DX003 (sc), vehicle: distilled water + Tween-80) was 82 % of control and the T/C (dose: 5.0 mg/kg/injection, schedule: Q04DX003 (sc), vehicle: distilled water + Tween-80) was 71 % of control. For the same compound, the T/C (dose: 10.0 mg/kg/injection, schedule: Q04DX003 (sc), vehicle: distilled water + Tween-80) was 88 % of control.

In the case of `CCCCCC[C@H]([C@H](C)O)n1cnc2c(N)ncnc21`, the T/C [3] is reported as 43 % of control, the T/C [4] is reported as 116 % of control and the T/C (dose: 200.0 mg/kg/injection, schedule: Q01DX010 (sc), vehicle: Klucel (hydroxypropylcellulose) (HPC)) is reported as 94 % of control.

In the case of `COC1=C(N)C(=O)c2nc(-c3nc(C(=O)O)c(C)c(-c4ccc(OC)c(OC)c4O)c3N)ccc2C1=O`, the T/C (dose: 0.13 mg/kg/injection, schedule: Q01DX010 (sc), vehicle: saline) is reported as 15 % of control and 18 % of control and the T/C (dose: 0.5 mg/kg/injection, schedule: Q01DX010 (sc), vehicle: saline) is reported as -77 % of control and -75 % of control.

For `O=C(O)CC(NC(=O)CP(=O)(O)O)C(=O)O.[NH-]C1CCCCC1[NH-].[Pt+2]` (centres undefined), the T/C (dose: 12.5 mg/kg/injection, schedule: Q04DX003 (sc), vehicle: dextrose) was 175 % of control, the T/C (dose: 25.0 mg/kg/injection, schedule: Q04DX003 (sc), vehicle: dextrose) was 43 % of control and 62 % of control and the T/C (dose: 100.0 mg/kg/injection, schedule: Q04DX003 (sc), vehicle: dextrose) was 12 % of control.

In the case of `CC1=C(/C=C/C(C)=C/C=C/C(C)=C/CO)C(C)(C)CCC1`, the T/C (dose: 200.0 mg/kg/injection, schedule: Q04DX003 (sc), vehicle: saline with Tween-80) is reported as 89 % of control, the T/C (dose: 400.0 mg/kg/injection, schedule: Q04DX003 (sc), vehicle: saline with Tween-80) is reported as 112 % of control and the T/C (dose: 800.0 mg/kg/injection, schedule: Q04DX003 (sc), vehicle: saline with Tween-80) is reported as 84 % of control. For the same compound, the T/C (dose: 1600.0 mg/kg/injection, schedule: Q04DX003 (sc), vehicle: saline with Tween-80) was 96 % of control.

`OC1CCCC2CCC[N-]C12.OC1CCCC2CCC[N-]C12.[Mn+2]` (centres undefined) was tested, and the T/C [5] was 87 % of control, the T/C [6] was 108 % of control and the T/C [7] was 65 % of control. For the same compound, the T/C (dose: 2400.0 mg/kg/injection, schedule: Q04DX003 (sc), vehicle: Klucel (hydroxypropylcellulose) (HPC)) was 73 % of control.

For `CCCCNC(C)[C@]1(O)Cc2c(O)c3c(c(O)c2[C@@H](OC2CC(N)C(O)C(C)O2)C1)C(=O)c1c(OC)cccc1C3=O` (some centres undefined), the T/C [2] was 59 % of control and 61 % of control and the T/C (dose: 18.0 mg/kg/injection, schedule: Q01DX010 (sc), vehicle: saline) was 12 % of control.

`O=[N+]([O-])/C=C\c1ccc2c(c1)OCO2` was tested, and the T/C [3] was 214 % of control, the T/C [4] was 91 % of control and the T/C (dose: 400.0 mg/kg/injection, schedule: Q01DX010 (sc), vehicle: Klucel (hydroxypropylcellulose) (HPC)) was 86 % of control.

In the case of `O=C(Nc1ccc(N=C=S)cc1Cl)c1cc(Cl)cc(Cl)c1O`, the T/C (dose: 25.0 mg/kg/injection, schedule: Q04DX003 (sc), vehicle: Klucel (hydroxypropylcellulose) (HPC)) is reported as 105 % of control, the T/C (dose: 50.0 mg/kg/injection, schedule: Q04DX003 (sc), vehicle: Klucel (hydroxypropylcellulose) (HPC)) is reported as 79 % of control and the T/C (dose: 100.0 mg/kg/injection, schedule: Q04DX003 (sc), vehicle: Klucel (hydroxypropylcellulose) (HPC)) is reported as 117 % of control. For the same compound, the T/C (dose: 400.0 mg/kg/injection, schedule: Q04DX003 (sc), vehicle: Klucel (hydroxypropylcellulose) (HPC)) was 50 % of control and the T/C (dose: 800.0 mg/kg/injection, schedule: Q04DX003 (sc), vehicle: Klucel (hydroxypropylcellulose) (HPC)) was 48 % of control.

For `CCC1=C[C@H]2CN(CCc3c([nH]c4ccccc34)[C@@](C(=O)OC)(c3cc4c(cc3OC)N(C)[C@H]3[C@@](O)(C(=O)NC)[C@H](OC(C)=O)[C@]5(CC)C=CCN6CC[C@]43[C@@H]65)C2)C1`, the T/C (dose: 1.0 mg/kg/injection, schedule: Q04DX003 (sc), vehicle: water) was 48 % of control and the T/C (dose: 2.0 mg/kg/injection, schedule: Q04DX003 (sc), vehicle: water) was 45 % of control.

For `COc1cc(OC)c(OC)cc1/C=C\c1ccnc2ccccc12`, the T/C [5] was 85 % of control, the T/C [6] was 110 % of control and the T/C [7] was 99 % of control.

`COc1cccc2c1C(=O)c1c(O)c3c(c(O)c1C2=O)C[C@@](O)(C(=O)CO)C[C@@H]3OC1CC(OC(C)=O)C(OC(C)=O)C(C)O1` (some centres undefined) was tested, and the T/C (dose: 6.25 mg/kg/injection, schedule: Q01DX010 (sc), vehicle: distilled water + Tween-80) was 82 % of control and the T/C (dose: 12.5 mg/kg/injection, schedule: Q01DX010 (sc), vehicle: distilled water + Tween-80) was 96 % of control.
